{"source": "patent US7897598B2", "about": "“Inhibitors of the anandamide transporter” (priority 1998, dated 2011)", "key": {"anandamide transporter [1]": {"test_system": "anandamide transporter", "assay": "Transport (translocation) of radioactively labeled substrates into astrocytoma cells", "type": "cell-based, human", "conditions": "radioactively labeled compound, FIG. 4 and FIG. 5"}, "anandamide transporter [2]": {"test_system": "anandamide transporter"}, "[3]": {"test_system": "adenylyl cyclase activity", "assay": "cAMP concentrations (adenylyl cyclase activity) in forskolin-stimulated cortical neurons", "type": "cell-based, rat"}, "CB1 receptors": {"molecular_target": "CB1 receptors (Homo sapiens, UniProt P21554)", "sequence (P21554 whole entry)": "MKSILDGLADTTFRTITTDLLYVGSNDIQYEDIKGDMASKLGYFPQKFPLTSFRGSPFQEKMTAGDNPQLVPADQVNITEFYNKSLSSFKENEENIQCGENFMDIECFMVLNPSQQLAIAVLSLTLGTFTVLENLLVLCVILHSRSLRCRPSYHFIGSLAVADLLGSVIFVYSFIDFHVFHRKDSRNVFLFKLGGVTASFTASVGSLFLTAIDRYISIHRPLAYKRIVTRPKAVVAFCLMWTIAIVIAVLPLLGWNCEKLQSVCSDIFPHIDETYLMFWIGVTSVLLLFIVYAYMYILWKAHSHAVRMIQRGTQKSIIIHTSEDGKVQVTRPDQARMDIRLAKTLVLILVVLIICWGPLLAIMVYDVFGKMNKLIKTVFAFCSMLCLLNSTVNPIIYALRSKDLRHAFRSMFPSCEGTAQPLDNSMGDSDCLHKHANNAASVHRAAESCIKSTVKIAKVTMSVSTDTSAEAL", "assay": "Binding to CB1 receptors"}, "male Swiss mice": {"test_system": "male Swiss mice", "conditions": "mouse, in vivo"}, "anandamide transporter [4]": {"test_system": "anandamide transporter", "assay": "[3H]anandamide transport assay, inhibition in astrocytoma cells", "conditions": "for IC50: read-out: IC50, [3H]anandamide accumulation"}, "anandamide transporter [5]": {"test_system": "anandamide transporter", "assay": "[3H]anandamide accumulation in neurons", "type": "cell-based, rat"}, "anandamide transporter [6]": {"test_system": "anandamide transporter", "assay": "[3H]anandamide accumulation in cortical astrocytes in culture", "type": "cell-based, rat"}, "[7]": {"molecular_target": "rat cerebral membranes ([3H]WIN-55212-2 binding) (Rattus norvegicus, UniProt P20272)", "sequence (P20272 whole entry)": "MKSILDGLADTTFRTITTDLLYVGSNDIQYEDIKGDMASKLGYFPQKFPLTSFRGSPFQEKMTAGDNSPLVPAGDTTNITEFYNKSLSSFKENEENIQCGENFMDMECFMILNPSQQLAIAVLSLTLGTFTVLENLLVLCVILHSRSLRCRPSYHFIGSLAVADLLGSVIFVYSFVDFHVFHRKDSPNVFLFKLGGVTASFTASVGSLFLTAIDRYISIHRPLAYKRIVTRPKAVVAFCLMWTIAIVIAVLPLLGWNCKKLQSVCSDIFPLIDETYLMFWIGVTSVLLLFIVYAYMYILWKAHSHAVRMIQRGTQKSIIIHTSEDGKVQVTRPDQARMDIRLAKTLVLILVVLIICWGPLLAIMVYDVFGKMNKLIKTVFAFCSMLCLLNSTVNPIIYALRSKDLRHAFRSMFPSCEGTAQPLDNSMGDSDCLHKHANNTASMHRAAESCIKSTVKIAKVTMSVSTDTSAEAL", "assay": "Binding of [3H]WIN-55212-2 to rat cerebral membranes"}, "[8]": {"molecular_target": "T1, fatty acid amide hydrolase (FAAH) (Rattus norvegicus, UniProt P97612)", "T1 construct": "from tissue; host or cells: brain microsomes", "T1 sequence (P97612 1-579)": "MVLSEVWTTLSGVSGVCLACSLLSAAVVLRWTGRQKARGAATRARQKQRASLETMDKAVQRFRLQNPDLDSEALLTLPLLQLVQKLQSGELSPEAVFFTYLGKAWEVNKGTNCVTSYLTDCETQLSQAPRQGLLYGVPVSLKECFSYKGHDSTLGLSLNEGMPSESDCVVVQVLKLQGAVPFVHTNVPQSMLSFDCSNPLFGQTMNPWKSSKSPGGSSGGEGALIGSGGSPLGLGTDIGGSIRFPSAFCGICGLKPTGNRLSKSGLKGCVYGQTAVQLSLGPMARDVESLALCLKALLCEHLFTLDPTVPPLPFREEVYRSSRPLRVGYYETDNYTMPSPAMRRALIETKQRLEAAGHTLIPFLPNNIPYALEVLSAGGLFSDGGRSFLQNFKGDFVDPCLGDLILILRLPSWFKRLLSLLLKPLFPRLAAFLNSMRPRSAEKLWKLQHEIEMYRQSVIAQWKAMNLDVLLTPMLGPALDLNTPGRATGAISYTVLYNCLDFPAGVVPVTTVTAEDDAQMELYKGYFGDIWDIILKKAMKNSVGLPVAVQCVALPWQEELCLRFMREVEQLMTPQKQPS", "assay": "FAAH activity in brain microsomes", "type": "biochemical"}}, "note": "Where “and” joins values, the source holds several entries; their conditions need not be identical. Equal entries are not always repeated. Where two headings read alike, the source gives them in different places."}
{"molecule": "cis-eicosatrienoylethanolamide", "values": [{"measurement": "transport into cells (substrate translocation, in words)", "setting": "anandamide transporter [1]", "result": "transported very slowly"}]}
{"molecule": "CCCCCC=CCC=CCC=CCC=CCCC(C)(C)C(=O)NCCO", "values": [{"measurement": "IC50", "setting": "anandamide transporter [2]", "result": "7.6 ± 1.2", "unit": "µM"}]}
{"molecule": "cis-eicosadienoylethanolamide", "values": [{"measurement": "transport into cells (substrate translocation, in words)", "setting": "anandamide transporter [1]", "result": "transported very slowly"}]}
{"molecule": "CCCCC/C=C\\C/C=C\\C/C=C\\CCCCCCC(=O)NCCO", "values": [{"measurement": "IC50", "setting": "anandamide transporter [2]", "result": "13 ± 3.6", "unit": "µM"}]}
{"molecule": "CCCCC/C=C\\C/C=C\\C/C=C\\C/C=C\\CCCC(=O)Nc1ccc(O)cc1", "note": "[AM404, N-(4-hydroxyphenyl)-arachidonamide]", "values": [{"measurement": "cAMP, % of forskolin alone", "setting": "[3]", "result": "89.8±2.6% and 84.4±4.9%"}, {"measurement": "decrease of anandamide threshold, factor", "setting": "[3]", "result": 1.100}, {"measurement": "effect on cAMP concentrations when applied alone", "setting": "[3]", "result": "did not reduce cAMP concentrations"}, {"measurement": "enhancement of the anandamide response on cAMP (in words)", "setting": "[3]", "result": "almost maximal effect"}, {"measurement": "increase of anandamide potency, factor", "setting": "[3]", "result": 10}, {"measurement": "Ki", "setting": "CB1 receptors", "result": 1.8, "unit": "µM"}, {"measurement": "antinociceptive effect alone (in words)", "setting": "male Swiss mice", "result": "no antinociceptive effect"}, {"measurement": "effect on anandamide-induced analgesia (in words)", "setting": "male Swiss mice", "result": "significantly enhanced and prolonged"}, {"measurement": "competition with [3H]anandamide for transport / uptake inhibition (in words)", "setting": "anandamide transporter [4]", "result": "the most potent competitor in our series"}, {"measurement": "IC50", "setting": "anandamide transporter [4]; human astrocytoma cells", "result": "2.2 ± 0.2", "unit": "µM"}]}
{"molecule": "CCCCCC=CCC=CCC=CCC=CCCCC(=O)NCC", "values": [{"measurement": "IC50", "setting": "anandamide transporter [2]", "result": "48.5 ± 7.3", "unit": "µM"}]}
{"molecule": "Cc1c(C2(c3cc(Br)c(O)c(Br)c3C)OS(=O)(=O)c3ccccc32)cc(Br)c(O)c1Br", "note": "[bromcresol green]", "values": [{"measurement": "IC50", "setting": "anandamide transporter [5]", "result": 4, "unit": "µM"}, {"measurement": "mode of inhibition of [3H]anandamide accumulation", "setting": "anandamide transporter [6]", "result": "noncompetitively"}, {"measurement": "IC50", "setting": "anandamide transporter [6]; astrocytes", "result": 12, "unit": "µM"}, {"measurement": "effect on binding of [3H]WIN-55212-2", "setting": "[7]", "result": "no significant effect"}, {"measurement": "effect on FAAH activity", "setting": "[8]", "result": "no significant effect"}, {"measurement": "cAMP, % of forskolin alone", "setting": "[3]; 10 μM inhibitor in the presence of WIN-55212-2 1 nM, n=3", "result": "92.9±2.3", "unit": "%"}, {"measurement": "enhancement of the anandamide response on cAMP (in words)", "setting": "[3]; anandamide 0.3 μM, inhibitors 10 μM, SR-141716-A 1 μM", "result": "less effective"}, {"measurement": "cAMP, % of forskolin alone", "setting": "[3]; inhibitor in the presence of glutamate 3 μM, n=3", "result": "84.4±3", "unit": "%"}]}
{"molecule": "CCCCC/C=C\\C/C=C\\C/C=C\\C/C=C\\CCCC(=O)Nc1cccc(O)c1", "note": "[AM403, N-(3-hydroxyphenyl)-arachidonamide]", "values": [{"measurement": "cAMP, % of forskolin alone", "setting": "[3]", "result": "92.4±2.3", "unit": "%"}, {"measurement": "enhancement of the anandamide response on cAMP (in words)", "setting": "[3]", "result": "less effective"}, {"measurement": "times less effective than N-(4-hydroxyphenyl)-arachidonamide", "setting": "anandamide transporter [4]; human astrocytoma cells, ratio of IC50", "result": 10, "unit": "times"}, {"measurement": "IC50", "setting": "anandamide transporter [4]; human astrocytoma cells", "result": "21.3 ± 3.4", "unit": "µM"}]}
{"molecule": "CCCCCC=CCC=CCC=CCC=CCCCC(=O)N1CCC(O)CC1", "values": [{"measurement": "IC50", "setting": "anandamide transporter [2]", "result": "10 ± 0.2", "unit": "µM"}]}
{"molecule": "N[C@@H](CCC(=O)O)C(=O)O", "note": "[glutamate, reference compound]", "values": [{"measurement": "cAMP, % of forskolin alone", "setting": "[3]", "result": "91.6±2", "unit": "%"}]}
{"molecule": "CCCCCC=CCC=CCC=CCC=CCCC(C)(C)C(=O)NCC(C)O", "note": "(centres unmarked) [drawing 22]", "values": [{"measurement": "IC50", "setting": "anandamide transporter [2]", "result": "16.5 ± 1", "unit": "µM"}]}
{"molecule": "CCCCCCCC/C=C\\CCCCCCCCCC(=O)NCCO", "values": [{"measurement": "IC50", "setting": "anandamide transporter [2]", "result": "14.1 ± 1.2", "unit": "µM"}]}
{"molecule": "CCCCC/C=C\\C/C=C\\C/C=C\\C/C=C\\CCCC(N)=O", "note": "[arachidonamide]", "values": [{"measurement": "transport into cells (substrate translocation, in words)", "setting": "anandamide transporter [1]", "result": "effectively transported into cells"}, {"measurement": "competition with [3H]anandamide for transport / uptake inhibition (in words)", "setting": "anandamide transporter [4]", "result": "compete with anandamide for uptake"}]}
{"molecule": "CCCCCC=CCC=CCC=CCC=CCCCC(=O)OC(CO)CO", "values": [{"measurement": "IC50", "setting": "anandamide transporter [2]", "result": "18.5 ± 0.7", "unit": "µM"}]}
{"molecule": "CCCCCC=CCC=CCC=CCC=CCCCC(=O)OCC(O)CO", "note": "(centres unmarked)", "values": [{"measurement": "IC50", "setting": "anandamide transporter [2]", "result": "48.5 ± 8.1", "unit": "µM"}]}
{"molecule": "CCCCC/C=C\\C/C=C\\C/C=C\\C/C=C\\CCCC(=O)NCCO", "note": "[anandamide, Arachidonyl ethanolamide]", "values": [{"measurement": "latency to jump", "setting": "male Swiss mice", "result": "30.7 ± 0.8", "unit": "s"}, {"measurement": "time after injection at which analgesia disappeared", "setting": "male Swiss mice", "result": 60, "unit": "min"}, {"measurement": "IC50", "setting": "anandamide transporter [2]", "result": "15.1 ± 3", "unit": "µM"}]}
{"molecule": "CCCCCC=CCC=CCC=CCC=CCCC(C)(C)C(=O)NCC(C)O", "note": "(centres unmarked) [drawing 21]", "values": [{"measurement": "IC50", "setting": "anandamide transporter [2]", "result": "33.2 ± 4.2", "unit": "µM"}]}
{"molecule": "CCCCCC=CCC=CCC=CCC=CCCCC(=O)N1CCCC(O)C1", "note": "(centres unmarked)", "values": [{"measurement": "IC50", "setting": "anandamide transporter [2]", "result": 15, "unit": "µM"}]}
{"molecule": "CCCCCC=CCC=CCC=CCC=CCCCC(=O)N1CCC(O)C1", "note": "(centres unmarked)", "values": [{"measurement": "IC50", "setting": "anandamide transporter [2]", "result": "15.3 ± 3", "unit": "µM"}]}
{"molecule": "CCCCCC=CCC=CCC=CCC=CCCCC(=O)N1CCOCC1", "values": [{"measurement": "IC50", "setting": "anandamide transporter [2]", "result": 25, "unit": "µM"}]}
{"molecule": "CCCCCCCC/C=C\\CCCCCCCC(=O)NCCO", "note": "[oleylethanolamide]", "values": [{"measurement": "transport into cells (substrate translocation, in words)", "setting": "anandamide transporter [1]", "result": "not transported at all"}]}
{"molecule": "CCCCCC=CCC=CCC=CCC=CCCCC(=O)NC(C)CO", "note": "(centres unmarked) [drawing 13]", "values": [{"measurement": "IC50", "setting": "anandamide transporter [2]", "result": "10.4 ± 1.2", "unit": "µM"}]}
{"molecule": "CCCCCCCC/C=C\\CCCCCCCC(=O)NCCO", "note": "[drawing 6]", "values": [{"measurement": "IC50", "setting": "anandamide transporter [2]", "result": "10.5 ± 1.2", "unit": "µM"}]}
{"molecule": "CCCCC[C@H](O)/C=C/[C@H]1[C@H](O)CC(=O)[C@@H]1C/C=C\\CCCC(=O)O", "note": "[PGE2, prostaglandin E2]", "values": [{"measurement": "effect on [3H]anandamide accumulation (in words)", "setting": "anandamide transporter [6]", "result": "inability"}]}
{"molecule": "CCCCCC=CCC=CCC=CCC=CCCCC(=O)NC(C)CO", "note": "(centres unmarked) [drawing 12]", "values": [{"measurement": "IC50", "setting": "anandamide transporter [2]", "result": "37.7 ± 0.7", "unit": "µM"}]}
{"molecule": "cis-eicosaenoylethanoladide", "values": [{"measurement": "transport into cells (substrate translocation, in words)", "setting": "anandamide transporter [1]", "result": "not transported at all"}]}
{"molecule": "CCCCCC=CCC=CCC=CCC=CCCCC(N)=O", "values": [{"measurement": "IC50", "setting": "anandamide transporter [2]", "result": "9 ± 2", "unit": "µM"}]}
{"molecule": "CCCCCCCCCCCCCCCC(=O)NCCO", "note": "[palmitoyl ethanolamide, reference compound]", "values": [{"measurement": "transport into cells (substrate translocation, in words)", "setting": "anandamide transporter [1]", "result": "not transported to any significant extent"}, {"measurement": "effect on [3H]anandamide accumulation (in words)", "setting": "anandamide transporter [6]; cortical astrocytes, WIN-55212-2 1 μM, SR-141716-A 10 μM", "result": "not"}]}
{"molecule": "Cc1c(C(=O)c2cccc3ccccc23)c2cccc3c2n1[C@H](CN1CCOCC1)CO3", "note": "[WIN-55212-2, reference compound]", "values": [{"measurement": "effect on [3H]anandamide accumulation (in words)", "setting": "anandamide transporter [6]", "result": "no effect"}, {"measurement": "cAMP, % of forskolin alone", "setting": "[3]", "result": "96.7±2.5", "unit": "%"}]}
